This note sets out measurements from patent publication US20220180963A1, “METHOD FOR SELECTING PATIENT SPECIFIC THERAPY” (YISSUM RESEARCH DEVELOPMENT COMPANY OF THE HEBREW …, priority 2018, published 2022).

Holding throughout (type): cell-based
One experiment deals with MCF7 cells. The experiment is described as follows: Survival of MCF7 cells after drug treatment (methylene blue). As to conditions: maximal killing, FIG. 14H. The procedure: Schematic figures of each unbalanced process are shown. […] For each cell line the combination of drugs predicted to target the complete unbalanced signaling signature was tested (marked with an asterix), as well as combinations that were predicted to only partially target the unbalanced signaling flux, each drug alone and taxol. […] Stain-free imaging was used to ensure equal loading.
Indeed, 4-OHT killed only up to 50% of the cells (FIG. 14H). […] Similar to the case in MDA468 cells, the double combination consisting of T and LY was expected to target all unbalanced processes in these cells, however since there are 4 distinct unbalanced processes that need to be targeted, addition of a third drug is apparently necessary to enhance the effect (FIG. 14G-I).

A further experiment relates to MDA-MB-231 cells. The experiment is described as follows: Survival of MDA-MB-231 cells after drug treatment (methylene blue). As to conditions: FIG. 14B; for killing / survival of MDA231 cells: methylene blue survival. An excerpt: (§1) FIG. 14A-I. Experimental validation of the approach (14A, 14D, 14G) Diagrams of signaling signatures of MDA-MB-231, MDA-MB-468 and MCF7 cells, according to SA based analysis. Schematic figures of each unbalanced process are shown. Drug predictions are indicated for each cell line, including the processes that they are predicted to target. (14B, 14E, 14H) Bar charts of survival rates in response to different treatments (as measured by methylene blue). For each cell line the combination of drugs predicted to target the complete unbalanced signaling signature was tested (marked with an asterix), as well as combinations that were predicted to only partially target the unbalanced signaling flux, each drug alone and taxol. For MDA468 a triple combination was tested as well (marked with two asterix signs, shown in the inset in FIG. 14E). […] Stain-free imaging was used to ensure equal loading. […] Bar chart inserts show quantified relative expression of the investigated protein.
To validate the approach, we analyzed a dataset comprising RPPA measurements from 10 cell lines, including breast, ovarian, and oesophageal cancer, and assigned a barcode and drug combinations to each cell line. The predictions were made such that for each cell line, at least one protein hub from every active unbalanced process will be inhibited, aiming to collapse the sample-specific altered signaling network. Three breast cancer cell lines were chosen for experimental validation: MDA-MB-231 (MD231), MDA-MB-468 (MD468), and MCF7. The two formers represent triple negative breast cancer (TNBC) against which no targeted therapy exists in clinics today. TNBC is often treated with non-specific chemotherapy, such as taxol^1. MCF7 represent luminal type A breast cancer, routinely treated with the ERα inhibitor, tamoxifen, and in some cases chemotherapy such as taxanes.

The next experiment concerns MDA-MB-468 cells. Nature of the experiment: Survival of MDA-MB-468 cells after drug treatment (methylene blue). The conditions noted are these: maximal killing, FIG. 14E.
Source text: as §1
To validate the approach, we analyzed a dataset comprising RPPA measurements from 10 cell lines, including breast, ovarian, and oesophageal cancer, and assigned a barcode and drug combinations to each cell line. The predictions were made such that for each cell line, at least one protein hub from every active unbalanced process will be inhibited, aiming to collapse the sample-specific altered signaling network. […]

Consider 4-hydroxy tamoxifen [4-OHT], for which the cells killed result in the experiment on MCF7 cells was “up to 50%”.
As to `C#Cc1cccc(Nc2ncnc3cc(OCCOC)c(OCCOC)cc23)c1` [erlotinib], the “killing / survival of MDA231 cells” value in the experiment on MDA-MB-231 cells was “no effect”.
With `CC(=O)O[C@H]1C(=O)[C@@]2(C)[C@H]([C@H](OC(=O)c3ccccc3)[C@]3(O)C[C@H](OC(=O)[C@H](O)[C@@H](NC(=O)c4ccccc4)c4ccccc4)C(C)=C1C3(C)C)[C@]1(OC(C)=O)CO[C@@H]1C[C@@H]2O` [taxol], the cells killed in the experiment on MDA-MB-468 cells is reported as ~80%. Besides, in the experiment with MDA-MB-231 cells, the “concentration at which efficacy of the treatment plateaued” value amounted to 100 nM and the “killing / survival of MDA231 cells” value was “efficiently killed”.
Take `CC(=O)Nc1cccc(-n2c(=O)n(C3CC3)c(=O)c3c(Nc4ccc(I)cc4F)n(C)c(=O)c(C)c32)c1` [trametinib]: in the experiment on MDA-MB-231 cells, the “concentration at which efficacy of the treatment plateaued” value turned out to be 100 nM.
